Measurements published in patent publication US7282215B2, “Supports for photosensitizer formulations” (The University of British Columbia, priority 2000, dated 2007).

Tests used:
[1] = Optimization of B-B3 incorporation in 10% w/v P123; type: physicochemical
Method: Using formulation methods described in Example 5, the aim was to incorporate 2 mg/ml of B-B3 into 10% w/v P123. It was shown by this method that the B-B3 can typically be incorporated at ˜1.8 mg/ml drug (based on absorbance readings and a molar extinction coefficient of 30425) 24 h post-hydration. This translates to approximately 10% drug loss. Unincorporated drug undergoes aggregation in aqueous solutions, and is characterized by the appearance of a 730 nm absorbance peak. Although the formulations can be made completely aggregate free by centrifugation or sterile filtration through 0.2 μm filters, this adds another step in the manufacturing process, which can be avoided by increasing the copolymer:drug ratio.

[2] = Drug loading of liposomal versus 10% P123 formulations; type: physicochemical; details: prepared at 2 mg/ml
Method: 5 mg drug and lipids (40% EPG in DMPC) are combined in CH2Cl2 at a drug to lipid ratio of 1:10 w/w in 250 ml round bottom flask. The maximum concentration of drug in solvent is 2 mg/ml. CH2Cl2 is removed rapidly as described in Example 5. The resulting thin film is hydrated with 2.5 ml lactose solution (9.5% w/v) using hand swirling with glass beads at 40° C. Extrusion using Model 4T (Lipex Biomembranes Inc. B.C., Canada) is carried out with the thermostat set at 40° C. The multilamellar vesicles (MLVs) arising from hydration steps of the liposomal formulation were also examined under the microscope. MLVs are successively extruded 5 times through each of the 400 nm, 200 nm and 100 nm polycarbonate membranes (Nuclepore PC, Costar). Extruded samples were diluted 1:100 in PBS (pH 7.4) and the absorbance determined at 690 nm wavelength.
In this experiment liposomal and block copolymer (micellar) photosensitizer formulations of A- and B-ring compounds of EA6 and B3 were compared. Each of the photosensitizer samples was prepared at a final drug concentration of 2 mg/ml. The block copolymer P123, and the liposomal formulations were prepared as described in the Examples 5 and 6, respectively.

[3] = system: arthritis in the MRL/1pr mouse; test: Transcutaneous PDT of arthritis, ankle width; type: in vivo; details: 0.5 mg/kg i.v.
Method: Arthritis in the MRL/1pr mouse strain was enhanced by giving 2 intradermal injections (thoracic and inguinal sites) with 0.05 ml of complete Freunds adjuvant containing 10 mg/ml heat-inactivated M. tuberculosis. PDT was given on days 0, 10 and 20 following CFA treatment. PDT was carnied out as follows; 3 groups of MRL/1pr mice were injected intravenously with B-B3 at 0.5 mg/kg (copolymer or liposomal formulations), after which they were protected from light. The third group was injected with copolymer alone at an equivalent copolymer concentration to that found in the formulation. An hour later, they were exposed to light at 80 J/cm^2 for […] (8 mW/cm^2).
Ankle width measurements were taken every 5 days prior to PDT treatment.

[4] = Vesicle size of liposomal BPD-MA (conventional and lactose micro-thin film); type: physicochemical
Method: For the standard laboratory preparation the liposomal bilayer components of 20 mg BPD-MA, 65 mg egg phosphatidyl glycerol (EPG) and 94 mg dimyristoyl phosphatidylcholine (DMPC), are combined in a round bottom flask and dissolved in 10 ml methylene dichloride (CH2Cl2). […]. The solvent is removed using standard rotary evaporation (Rotavapor R-124 and Buchi B171 Vacobox pump) leaving a thin film of the bilayer components on the flask wall. Once the thin film is prepared, it is hydrated using 10 ml iso-osmolar lactose (10% w/v) to give a final concentration of 2 mg/ml BPD-MA. Size reduction is carried out by consecutive extrusions through 400 nm, 200 nm, and finally 100 nm pore polycarbonate membranes (5 times through each) under high pressure. […] The final product was lyophilized and can be reconstituted prior to use by addition of water.
10 mg BPD-MA was combined with 32.5 mg phosphatidyl glycerol (EPG) and 47 mg dimyristoyl phosphatidylcholine (DMPC), and dissolved in 5 ml CH2Cl2. 2.5 ml of this solution (containing 5 mg BPD-MA) was then added to […] lactose in a rotary evaporator flask. The solvent was removed under rotary evaporation at 50° C. The film deposited on the glass wall was hydrated by addition of 2.5 ml warm distilled water (60° C.) with swirling. The hydrated material was examined under the microscope. Size reduction was carried out by extrusion of the hydrated material through 400, 200 and 100 nm pore polycarbonate membranes (5× through each) as described in Example 20.
In this experiment the effect of replacing CH2Cl2 with ethanol as a solvent for the sugar proliposomal formulation of photosensitizer and phospholipids was examined. The experiment was carried out as described in Example 21 except with the following changes: 20 mg BPD-MA was combined with 65 mg EPG and 94 mg DMPC, and dissolved in a total volume of 20 ml ethanol with occasional warming in 50° C. water bath. Ethanol was removed under rotary evaporation at 50° C., leaving BPD-MA/lipid coated lactose crystals evenly deposited onto flask wall. Flask was removed from the temperature bath, and left under vacuum for 10 min. The contents of the flask were scraped and hydrated by addition of 10 ml distilled water (60° C.) with swirling. The hydrated material was examined under the microscope and the MLV diameter was measured using laser light scattering on a NICOMP™ 370 Submicron Particle Sizer. Extrusion was then carried out as described in Example 20.
The experimental procedure was carried out was as described in Example 22, with the exception of the following changes. The liposomal bilayer constituents, 32.5 mg of EPG and 47 mg of DMPC, were dissolved in 2 ml ethanol, instead of 20 ml. The solution was warmed to 50° C. in a water bath. This was followed by addition of 10 mg BPD-MA, and the total volume was made up to 4 ml to ensure complete dissolution (2.5 mg/ml final concentration). 0.5 g of lactose was added to the round bottom flask. The solvent was removed by rotary evaporation, and the flask removed from the water bath, and left under vacuum for 1.5 h. For hydration, 5 ml of pre-warmed distilled water (60° C.) was added to flask with swirling. Extrusion of the solution and sizing of the vesicles was carried out as described in Example 22.

[5] = liposomal formulation, light 80 J/cm^2

SMILES | Drug loss ([1]; 2 mg/ml added) | Drug incorporated ([1]; 2 mg/ml added, 24 h post-hydration) [mg/mL] | Drug incorporation ([1]; final drug concentration 1 mg/ml) | Drug loading, P123 ([2]; Pluronic P123 10% weight/volume) [mg/mL] | Drug loading, Liposome ([2]; liposomal formulation) | Control of inflammation (increase in ankle swelling) ([3]; copolymer formulation, light 80 J/cm^2 1 h later, PDT days 0, 10, 20) | Control of inflammation (ankle swelling), after day 25 [3, 5] | Control of inflammation (ankle swelling), earlier part of the study [3, 5] | Diameter of MLVs ([4]; hydration of conventional thin films) [μm] | Mean diameter of the MLVs ([4]; lactose micro-thin film from ethanol, 92.44% by volume) [nm] | Diameter of unilamellar vesicles after extrusion, smaller population ([4]; lactose micro-thin film, 20 ml ethanol, 23.17% by volume) [nm] | Diameter of unilamellar vesicles after extrusion, larger population ([4]; lactose micro-thin film, 20 ml ethanol, 76.83% by volume) [nm] | Mean diameter of unilamellar vesicles, smaller population ([4]; lactose micro-thin film, reduced ethanol volume, 29.49% by volume) [nm] | Mean diameter of unilamellar vesicles, larger population ([4]; lactose micro-thin film, reduced ethanol volume, 70.5% by volume) [nm]
C=Cc1c(C)c2cc3nc(cc4[nH]c(cc5nc(cc1[nH]2)C1(C)C5=CC=C(C(=O)O)C1C(=O)OC)c(C)c4CCC(=O)OC)C(CCC(=O)OC)=C3C (centres unmarked) [B-B3] | approximately 10% | ~1.8 | complete incorporation of all added drug | 1.24 | Very low | highly effective in controlling the inflammation | exacerbation of the inflammatory condition | better suppression of the inflammation compared to the controls | – | – | – | – | – | –
C=Cc1c(C)c2cc3nc(cc4[nH]c(cc5nc(cc1[nH]2)C(C)=C5CCC(=O)O)c(CCC(=O)OC)c4C)[C@@]1(C)C3=CC=C(C(=O)OC)[C@H]1C(=O)OC [BPD-MA, benzoporphyrin derivative mono-acid-ring A, reference compound] | – | – | – | – | – | – | – | – | > 1 | 690 | 47.9 | 110.4 | 58.4 | 132.4
